# Measurements as given in patent US11478442B2, “Pharmaceutical compositions comprising DGLA and use of same” (DS Biopharma Limited, priority 2014, dated 2022).
# Where two headings read alike, the source gives them in different places.
# What was measured:
# [1] = test system: spontaneous hypertensive rats; assay: Anti-hypertension efficacy of DGLA and aspirin in spontaneous hypertensive rats with phenylephrine challenge; type: in vivo, rat; conditions: for effect on mean systemic arterial pressure (in words): aspirin-fed rats
# Procedure: An in vivo investigation of anti-hypertension efficacy following co-administration of DGLA and aspirin in spontaneous hypertensive rats was conducted. This experiment investigated the efficacy of DGLA when co-administered chronically with aspirin to reduce the hypertensive response induced acutely by phenylephrine in spontaneous hypertensive rats. Spontaneously hypertensive adult male rats (250-300 g), bred by Charles River Laboratories, were used for this assay. The animals were identified upon arrival as per CCPA guidelines. The animals were pair-housed by group (low dose+ Aspirin, high dose+ Aspirin or Aspirin alone) for the duration of the oral gavage prior to surgery. All animal care and vivarium maintenance was recorded, with documents kept at the test facility.
# The concentrations of DGLA to be tested (50 and 500 mg/kg) as well as the concentration of aspirin (10 mg/kg) were selected by the Sponsor based on information available at the time of design of this study. They were selected to cover a range of concentrations useful for the identification of the mechanism of action of the test article.
# All solution preparations were documented on a Solution Contents Form, defining labelling information and all relevant information on reagents: batch number, storage conditions, contents, and preparation/expiry dates.
# The test article was formulated using olive oil as the vehicle. This stock solution was then administered by oral gavage once per day for seven consecutive days. A low and a high dose (50 mg/kg and 500 mg/kg) were tested.
# A 5 mg/ml stock solution of Aspirin was prepared by dissolving the appropriate amount of aspirin in 100% DMSO which was then diluted in water. The concentration of DMSO was less than 1%. The appropriate volume was administered by oral gavage to each animal once per day for seven consecutive days. The stock solution was stored at room temperature and was considered stable for the duration of the gavage.
# The appropriate volume was administered to each animal by an intravenous injection at the end of the experiment on the surgery day. The stock solution was stored at 4° C. and was considered stable for the duration of the experiment.
# Male spontaneous hypertensive rats weighing approximately 300 g arrived at the facility at least two days before beginning the oral gavage. Animals were assigned to one of three groups (low dose+ aspirin, high dose+ aspirin, and aspirin), and were pair-housed during the acclimation period. Each group (n=4) received the appropriate compound by oral gavage using a 16G feeding needle. The stock solution was administered once per day for seven consecutive days. On the seventh day of administration, the animals underwent surgery and hypertensive monitoring.
# Rats were anesthetized with a 2.5-3.0% isoflurane-O2 mixture in an induction box. When the animals were removed from the induction box, they were connected onto a nose cone to maintain anesthesia during the tracheotomy. The animals were tracheotomised with an endotracheal tube (7 cm length from connector to the tip made with a PE205 tube from BD and a 16G needle) to facilitate spontaneous breathing, stabilize hemodynamics, and to keep the rat under anesthesia with an isoflurane-O2 mixture. Two catheters were inserted: one in the right femoral artery for systemic arterial pressure (SAP) measurement, and one in the right femoral vein for delivery of the hypertensor and positive control. ECG signals were acquired with ECG contacts placed in a Lead-1 configuration on the anaesthetized animal, and a pulse oxymeter was attached to the animal's hind paw to enable continuous monitoring of the general condition of the rat during the surgical. Following baseline measurements, three doses of phenylephrine (3, 10 and 20 μg/kg) were delivered by an IV bolus injection, leaving 5 minutes between doses. […] After the positive control, 10 μg/kg of phenylephrine was administered again.
# [2] = in vivo
# Procedure: In Part one of the study, plasma PK analysis of Dihomo-Gamma-Linolenic Acid (DGLA) and 15-Hydroxyeicosatrienoic acid (15-HETrE), in fasted subjects alone, was performed for Cohorts one to four up to 312 hours post dose on study Days 1 to 5, 8, 14, and the follow-up visit. In Part two, plasma PK analysis of DGLA was performed for Cohorts five and six up to 168 hours post dose on study Days 1, 2, 3, 5, and 8. Safety assessments were monitored throughout the study.
# Analysis of plasma concentrations of DGLA (free and total) and free 15-HETrE were performed in blood samples obtained from the subjects.
# Analysis of all plasma and skin blister fluid samples was performed using validated methods. Concentrations of free and total DGLA were measured in plasma and skin blister fluid by liquid chromatography with tandem mass spectrometry (LC/MS/MS); the quantitation range was 100 to 10,000 ng/mL for free DGLA and 5000 to 500,000 ng/mL for total DGLA. Plasma concentrations of free 15-HETrE were measured by LC/MS/MS with a quantitation range of 100 to 10,000 ng/mL.
# [3] = Phase one study, multiple dose (28 days): plasma pharmacokinetics of free DGLA incl. steady state; type: in vivo, human
# Procedure: (§1) A single-center, double-blind, randomized, placebo-controlled, two part Phase one study was performed in healthy male and female subjects aged 18 to 45 years inclusive. The primary objective of this study was to assess the safety and plasma pharmacokinetics (PK) of orally administered single doses and orally administered multiple doses of DS107G capsules (once daily for 28 days) in healthy subjects.
# (§2) Multiple dose part two of the study comprised two cohorts (Cohorts five and six) of eight subjects each, who were administered multiple doses of study drug in the fasted state for 28 days. Subjects in Cohorts five and six received DS107G 2000 or 4000 mg, respectively, or matching placebo once daily for 28 days. Cohort six was started after Cohort five safety data were evaluated by the SMC. No interim analysis was planned.
# (§3) Safety assessments were monitored throughout the study.
# (§4) In Part two of the study (Cohorts five and six), subjects were administered study drug (500-mg DS107G capsules or matching placebo capsules) once daily in the fasted state for 28 days. Subjects in Cohort five received study drug first and, if they tolerated the 2000-mg daily dose for the first 14 days, subjects in Cohort six were started on the 4000-mg daily dose for 28 days.
# (§5) PK parameter was computed after correcting the dosed DGLA concentrations with baseline DGLA concentrations.
# [4] = Phase one study, multiple dose (28 days): plasma pharmacokinetics of total DGLA incl. steady state; type: in vivo, human; conditions: for half-life: 2000 mg, 2000 mg dose cohort, read-out: Median total DGLA elimination t½ (converted); for Peak Trough Fluctuation (PTF), mean (Table 24, total DGLA): steady-state, Day 28 (0-24 hours)
# Procedure: as §1, §2, §3, §4, §5
# [5] = Phase one study, multiple dose: free and total DGLA in skin blister fluid; type: in vivo, human
# Excerpt: The PK of DGLA in human skin following multiple doses of DS107G capsule given once daily for 28 days to healthy subjects.
# [6] = Phase one study, food effect: single 1000 mg dose fasted vs fed, plasma pharmacokinetics of free and total DGLA; type: in vivo, human; conditions: for Tmax: human, plasma, oral, 1000 mg, read-out: total DGLA tmax, median
# Procedure: The effect of food on the PK of an orally administered single dose of DS107G capsule in healthy subjects.
# Subjects were randomly assigned in a 3:1 ratio of DG107G to placebo by block randomization. Single dose part one of the study comprised three cohorts of eight subjects each, with the addition of Cohort four based on evaluation of the safety data of Cohort three by the Safety Monitoring Committee (SMC). A single oral dose of DS107G or matching placebo was administered to fasted subjects in Cohorts one to three (500, 1000, and 2000 mg, respectively) in parallel; subjects in Cohort four were administered a dose of 4000 mg following completion of Cohort three. Subjects in Cohort two received 1000 mg or matching placebo in the fed state at 14 days after the first dose.
# Food effect was evaluated in Cohort two at least 14 days after the first dose at which time a second single dose was administered. Subjects were administered a 1000-mg dose of study drug with 240 mL of water after a 10-hour fasting period and 30 minutes after starting consumption of a meal. Subjects then refrained from food intake for at least 4 hours after dosing. Food consumption was standardized for at least 12 hours after dosing using a standardized high-fat meal (800 to 1000 kcal with 500 to 600 kcal from fat and 250 kcal from carbohydrates). A typical standard test meal consisted of two eggs fried in butter, two strips of bacon, two slices of toast with butter, 120 mL of hash brown potatoes, and 240 mL of whole milk.
# Subjects in Cohort two undergoing evaluation of the food effect on oral 1000 mg DGLA capsules were restricted from food consumption for at least 4 hours after dosing. Food consumption was standardized for at least 12 hours post dose using a standardized high-fat meal.
# [7] = DGLA 50 mg/kg gavage 7 days, before intravenous phenylephrine
# [8] = concentrations from Days 1, 8, 14 and 28
compound,measurement,setting,value
"CC(=O)Oc1ccccc1C(=O)O [Aspirin, reference compound]","Mean Arterial Pressure, Average","[1]; Aspirin 10 mg/kg/day gavage 7 days, Baseline",136.8 mm Hg
"CCCCC[C@H](O)/C=C/C=C\C/C=C\CCCCCCC(=O)O [Batch 15-HETrE, 15-Hydroxyeicosatrienoic acid]",plasma free 15-HETrE concentration,[2],< 100 ng/m L
"COc1ccccc1OCCNCC(O)COc1cccc2[nH]c3ccccc3c12 (stereo not shown) [Carvedilol, reference compound]",effect on mean systemic arterial pressure (in words),[1]; carvedilol 0.1 mg/kg iv after phenylephrine,significant decrease
same,effect on blood pressure (in words),"[1]; carvedilol 0.1 mg/kg iv, DGLA + aspirin-fed animals",significant decrease in blood pressure
"CCCCC/C=C\C/C=C\C/C=C\CCCCCCC(=O)O [DGLA, Dihomo gamma linolenic acid]",free DGLA mean accumulation ratio (AR) for AUC,[3]; 2000 mg daily,~3.3
same,free DGLA mean accumulation ratio (AR) for Cmax,[3]; 2000 mg daily,~2.8
same,free DGLA mean accumulation ratio (AR) for AUC,[3]; 4000 mg daily,~1.6
same,free DGLA mean accumulation ratio (AR) for Cmax,[3]; 4000 mg daily,~1.4
same,day by which plasma concentrations reached steady-state,"[3]; 2000 and 4000 mg daily, free and total DGLA",~14 days
same,time after dosing at which mean concentrations of free DGLA peaked,"[3]; Days 1 and 28, 2000 and 4000 mg daily",about 4 hours
same,half-life,"[4]; both sexes, human, plasma, oral, Day 1, assessed over 24 hours",2060 min
same,half-life,"[4]; both sexes, human, plasma, oral, Day 28, assessed over 24 hours",2640 min
same,half-life,"[4]; both sexes, human, plasma, oral, Day 28, evaluated over 0 to 168 hours",3760 min
same,Tmax,"[4]; both sexes, human, plasma, oral, with multiple doses, both dose cohorts, read-out: total DGLA Median T (tmax)",8 to 10 h
same,"Peak Trough Fluctuation (PTF), mean (Table 24, total DGLA)",[4]; first of both dose cohorts (2000 mg),62.5%
same,"Peak Trough Fluctuation (PTF), mean (Table 24, total DGLA)",[4]; second of both dose cohorts (4000 mg),44.9%
same,Diastol arterial pressure,[1]; [7],75 mm Hg
same,Systol arterial pressure,[1]; [7],120 mm Hg
same,Diastol arterial pressure,"[1]; DGLA 500 mg/kg gavage 7 days, before intravenous phenylephrine",80 mm Hg
same,effect on arterial pressure in spontaneously hypertensive rats (in words),"[1]; DGLA alone, 50 or 500 mg/kg gavage 7 days",successfully decreases the arterial pressure
same,"Mean total DGLA concentrations in skin blister fluid, Day 28 vs Day 1",[5]; 2000 mg daily,about 2.5 fold
same,"Mean total DGLA concentrations in skin blister fluid, Day 28 vs Day 1",[5]; 4000 mg daily,~3 fold
same,change of mean free DGLA concentrations in skin blister fluid with a doubling in dose (in words),[5]; [8],approximately doubled
same,increase of mean total DGLA concentrations in skin blister fluid with a doubling in dose,[5]; [8],about 1.4 fold
same,free DGLA Cmax occurred sooner (median) under fasted than fed conditions,[6],1 h
same,Tmax,[6]; fasted,8 h
same,Tmax,[6]; fed,15 h
"CNC[C@H](O)c1cccc(O)c1 [phenylephrine, reference compound]",effect on mean systemic arterial pressure (in words),"[1]; phenylephrine 3, 10, 20 μg/kg iv",increased mean systemic arterial pressure with increasing doses
